No end group written: not given here. *: point of attachment. Dansyl = CN(C)c1cccc2c(S(=O)(=O)*)cccc12
Legend:
[1] = biological target: T1, human carbonic anhydrase II, HCAII (Homo sapiens, UniProt P00918); assay: Surface plasmon resonance-based steady state affinity, immobilized HCAII; settings: 1:1 binding model, peptide 40 nM to 10 μM
Method: [Taylor, P. W.; King, R. W.; Burgen, A. S. V. Biochemistry 1970, 9, 2638-2645] […] Lond. B 1976, 193, 107-125]. […] 1.4 equivalents of Id were allowed to react with 1 equivalent of KE2-P or KE3-P in 50 mM Tris-HCl buffer at pH 8.0 and room temperature.

[2] = biological target: T1, human carbonic anhydrase II, HCAII; assay: Fluorescence emission spectra of dansyl-labelled peptides in absence and presence of HCAII; format: binding; settings: 1 μM peptide, 50 μM HCAII, 10 mM HBS buffer pH 7.4, 298 K, excitation 335 nm
Method: Dotted lines represent spectra in the absence of HCAII, solid lines represent spectra where 50 μM HCAII has been added.
Spectra were recorded of 1 μM peptide solutions in 10 mM HBS buffer at pH 7.4 and 298 K, in the absence and presence of 50 μM HCAII, with 1 μM solutions of KE2-P and KE3-P as negative controls, FIG. 2.

## NS(=O)(=O)c1ccc(C(=O)NCCCCCC(=O)O)cc1 [Ic]
[1]
  Kd: 44 nM

## KE3-P: KE3 with dansyl fluorescent probe at the side chain of Lys15; control without ligand (NAADLEAKIRHLAEK(Dansyl)LAARGPCDAAQLAEQLARRFEAFARAG)
[2]
  increase of fluorescence intensity upon addition of HCAII: not affected
